“And” between values parts separate entries of the source, which are not always exact repeats. Identical values can stand only once. The source made the active and inactive calls.

The results in this text go back to ChEMBL document CHEMBL1201862, “PubChem BioAssay data set” (2004).

Among the targets are Cytochrome P450 2D6 (Homo sapiens, UniProt P10635); Cytochrome P450 3A4 (Homo sapiens, UniProt P08684); Cytochrome P450 2C9 (Homo sapiens, UniProt P11712).
A short description of assay [1]: Luminescence Cell-Based Dose Response HTS to Identify Activators of Luciferase Translation or Activity in H4 […] Cells. [Related pubchem assays: 1829 (Project Summary), 1814 (Primary HTS)]. The class given is functional.
The nature of assay [2]: Luminescence Cell-Based Dose Confirmation HTS to Identify Activators of 5'UTR Stem-Loop Driven Alpha-Synuclein mRNA Translation in H4 Neuroglioblastoma Cells. [Related pubchem assays: 1829 (Project Summary), 1814 (Primary HTS)]. In kind it is functional.
Another assay has as its system H4. The assay is described as follows: Luminescence Cell-Based Dose Response HTS to Identify Activators of 5'UTR Stem-Loop Driven Prion Protein mRNA Translation in H4 Neuroglioblastoma Cells. [Related pubchem assays: 1829 (Project Summary), 1814 (Primary HTS)]. In kind it is functional. Particulars: Homo sapiens.
Assay [3] addresses T1, Corticotropin-releasing factor receptor 2/Corticotropin-releasing factor-binding protein (Homo sapiens, UniProt P24387+Q13324).
T1 sequence (Q13324 whole entry): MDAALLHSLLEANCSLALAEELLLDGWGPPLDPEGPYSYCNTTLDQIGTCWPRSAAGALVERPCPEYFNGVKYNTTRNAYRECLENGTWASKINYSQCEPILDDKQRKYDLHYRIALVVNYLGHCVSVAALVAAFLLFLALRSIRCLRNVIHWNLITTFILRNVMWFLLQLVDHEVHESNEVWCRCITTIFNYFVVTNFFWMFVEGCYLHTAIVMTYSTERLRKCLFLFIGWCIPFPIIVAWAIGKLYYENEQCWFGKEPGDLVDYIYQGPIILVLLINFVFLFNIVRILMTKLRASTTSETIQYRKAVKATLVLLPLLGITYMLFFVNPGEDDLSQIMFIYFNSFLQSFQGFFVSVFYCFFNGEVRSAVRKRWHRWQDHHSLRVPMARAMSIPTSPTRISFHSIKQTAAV
T1 sequence (P24387 whole entry): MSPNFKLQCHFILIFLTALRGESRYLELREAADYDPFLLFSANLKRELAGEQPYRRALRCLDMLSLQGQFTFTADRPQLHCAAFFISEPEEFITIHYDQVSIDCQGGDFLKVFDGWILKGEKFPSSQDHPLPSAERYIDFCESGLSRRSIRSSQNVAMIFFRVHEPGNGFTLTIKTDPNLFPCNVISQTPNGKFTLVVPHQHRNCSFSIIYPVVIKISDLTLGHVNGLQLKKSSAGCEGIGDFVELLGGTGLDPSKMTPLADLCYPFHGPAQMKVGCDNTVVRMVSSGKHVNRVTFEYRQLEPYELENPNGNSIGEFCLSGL
Put plainly: Dose Response confirmation of uHTS hits for small molecule antagonists of the CRF-binding protein and CRF-R2 receptor complex. The settings on record: read-out: IC50_Mean. The class given is functional.

The target in assay [4] is T1, Corticotropin-releasing factor receptor 2/Corticotropin-releasing factor-binding protein. The assay is described as follows: activators of CRF receptor 2 with binding protein – uHTS hits, confirmation (AID 602473). In kind it is functional. Particulars: read-out: EC50_Mean.
For the next assay, the target named is T2, Cytochrome P450 1A2 (Homo sapiens, UniProt P05177).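 Note: PubChem cytochrome P450 panel assay, CYP1A2 panel member.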
T2 sequence (P05177 whole entry): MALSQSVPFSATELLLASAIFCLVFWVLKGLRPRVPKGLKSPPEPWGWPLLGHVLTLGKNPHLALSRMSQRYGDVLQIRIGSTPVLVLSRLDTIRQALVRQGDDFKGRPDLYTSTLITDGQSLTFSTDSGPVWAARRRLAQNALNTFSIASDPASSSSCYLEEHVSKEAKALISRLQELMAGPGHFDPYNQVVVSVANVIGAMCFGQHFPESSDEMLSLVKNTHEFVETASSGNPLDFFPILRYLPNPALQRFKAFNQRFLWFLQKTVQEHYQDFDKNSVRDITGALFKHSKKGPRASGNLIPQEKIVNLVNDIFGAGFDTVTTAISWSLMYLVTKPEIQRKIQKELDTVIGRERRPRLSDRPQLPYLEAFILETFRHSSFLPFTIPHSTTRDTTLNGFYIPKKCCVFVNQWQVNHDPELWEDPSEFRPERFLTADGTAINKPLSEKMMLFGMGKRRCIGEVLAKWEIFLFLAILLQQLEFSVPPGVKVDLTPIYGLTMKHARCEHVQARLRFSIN

Assay [5] deals with T3, Ubiquitin-conjugating enzyme E2 N (Homo sapiens, UniProt P61088).
T3 sequence (P61088 whole entry): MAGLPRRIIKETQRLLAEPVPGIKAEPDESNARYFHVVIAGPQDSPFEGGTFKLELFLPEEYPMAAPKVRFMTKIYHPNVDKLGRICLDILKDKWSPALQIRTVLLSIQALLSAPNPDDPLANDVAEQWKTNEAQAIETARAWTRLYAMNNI
The class given is functional.

The nature of assay [6]: Luminescence Cell-Based Dose Retest to Confirm Inhibitors of Cancer Stem Cells. [Related pubchem assays (depositor defined):AID2717, AID2721]. In kind it is functional. Particulars: Homo sapiens.
The next assay deals with Cytochrome P450 2C19 (Homo sapiens, UniProt P33261). The assay is described as follows: Cytochrome panel assay with activity outcomes. Panel member name: p450-cyp2c19 Compounds with AC50 equal or less than 10 uM are considered active. The class given is functional. Particulars: read-out: AC50.
Sequence of Cytochrome P450 2C19 (P33261 whole entry): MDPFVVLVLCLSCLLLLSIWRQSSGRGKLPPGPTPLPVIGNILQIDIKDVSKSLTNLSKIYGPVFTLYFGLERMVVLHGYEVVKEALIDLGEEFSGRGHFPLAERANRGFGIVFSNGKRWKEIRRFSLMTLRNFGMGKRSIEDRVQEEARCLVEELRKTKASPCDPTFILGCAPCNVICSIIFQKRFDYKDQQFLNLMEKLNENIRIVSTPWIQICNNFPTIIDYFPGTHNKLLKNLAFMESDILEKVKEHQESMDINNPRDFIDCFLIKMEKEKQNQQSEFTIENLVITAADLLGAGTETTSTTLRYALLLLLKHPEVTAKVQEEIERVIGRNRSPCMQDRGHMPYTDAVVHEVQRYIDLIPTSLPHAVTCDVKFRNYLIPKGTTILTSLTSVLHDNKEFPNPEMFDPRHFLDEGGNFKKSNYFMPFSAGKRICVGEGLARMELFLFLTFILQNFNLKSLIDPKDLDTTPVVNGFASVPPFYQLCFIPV
A short description of assay [7]: NIH3T3 cell viability loss – ATP luminescence, mouse fibroblasts, counter-screen, dose response (AID 2010).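 Note: cells exposed to compound for about 90 hours before reading.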 The class given is functional, cell-based. On the technique in general: Counterscreens check selectivity or assay interference.
Assay [8] is described as follows: Trypanosoma cruzi growth suppression in host cells – NIH3T3 host cells, beta-gal luminescence, confirmation (AID 2044).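 Note: intracellular parasites grown in NIH/3T3 mouse fibroblasts as host cells; luminescent beta-galactosidase reporter signal from transgenic T. cruzi replicating inside host cells; inhibitors lower the luminescence signal.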 In kind it is functional, cell-based.
A further assay has as its target Paired box protein Pax-8 (Homo sapiens, UniProt Q06710). Put plainly: PAX8 transcriptional activity inhibition in RMG-I – RMG-I cells, luciferase, cherry-pick, dose response (AID 687027).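 Note: luciferase reporter driven by Pax8 target thyroperoxidase promoter measured by SteadyGlo luminescence.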 In kind it is functional, cell-based.

Sequence of Cytochrome P450 2C9 (P11712 whole entry): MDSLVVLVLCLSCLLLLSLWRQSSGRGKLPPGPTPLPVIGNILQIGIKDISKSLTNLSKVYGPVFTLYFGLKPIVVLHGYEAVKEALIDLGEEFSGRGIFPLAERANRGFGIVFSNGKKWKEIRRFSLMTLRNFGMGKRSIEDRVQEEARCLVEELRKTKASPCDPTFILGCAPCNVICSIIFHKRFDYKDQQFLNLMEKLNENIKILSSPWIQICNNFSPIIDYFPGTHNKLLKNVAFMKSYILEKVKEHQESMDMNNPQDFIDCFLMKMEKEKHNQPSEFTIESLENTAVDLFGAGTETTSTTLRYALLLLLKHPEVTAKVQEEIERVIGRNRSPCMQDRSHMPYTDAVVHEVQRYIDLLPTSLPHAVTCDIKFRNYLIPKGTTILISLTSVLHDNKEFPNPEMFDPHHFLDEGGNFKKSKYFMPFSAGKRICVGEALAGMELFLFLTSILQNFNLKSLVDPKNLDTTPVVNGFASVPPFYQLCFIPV
Sequence of Cytochrome P450 2D6 (P10635 whole entry): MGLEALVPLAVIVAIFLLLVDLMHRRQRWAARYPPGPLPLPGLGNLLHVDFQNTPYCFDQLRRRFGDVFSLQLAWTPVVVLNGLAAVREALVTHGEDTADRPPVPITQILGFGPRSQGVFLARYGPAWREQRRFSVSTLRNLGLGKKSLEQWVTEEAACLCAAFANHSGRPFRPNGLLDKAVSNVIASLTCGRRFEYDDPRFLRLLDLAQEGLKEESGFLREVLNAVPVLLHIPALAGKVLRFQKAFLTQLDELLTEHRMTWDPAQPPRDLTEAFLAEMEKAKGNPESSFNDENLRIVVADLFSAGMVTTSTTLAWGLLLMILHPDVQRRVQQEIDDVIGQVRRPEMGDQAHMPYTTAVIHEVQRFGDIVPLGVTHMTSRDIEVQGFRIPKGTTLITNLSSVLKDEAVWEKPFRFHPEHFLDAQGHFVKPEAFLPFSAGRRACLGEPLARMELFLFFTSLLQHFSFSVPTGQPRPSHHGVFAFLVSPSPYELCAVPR
Sequence of Cytochrome P450 3A4 (P08684 whole entry): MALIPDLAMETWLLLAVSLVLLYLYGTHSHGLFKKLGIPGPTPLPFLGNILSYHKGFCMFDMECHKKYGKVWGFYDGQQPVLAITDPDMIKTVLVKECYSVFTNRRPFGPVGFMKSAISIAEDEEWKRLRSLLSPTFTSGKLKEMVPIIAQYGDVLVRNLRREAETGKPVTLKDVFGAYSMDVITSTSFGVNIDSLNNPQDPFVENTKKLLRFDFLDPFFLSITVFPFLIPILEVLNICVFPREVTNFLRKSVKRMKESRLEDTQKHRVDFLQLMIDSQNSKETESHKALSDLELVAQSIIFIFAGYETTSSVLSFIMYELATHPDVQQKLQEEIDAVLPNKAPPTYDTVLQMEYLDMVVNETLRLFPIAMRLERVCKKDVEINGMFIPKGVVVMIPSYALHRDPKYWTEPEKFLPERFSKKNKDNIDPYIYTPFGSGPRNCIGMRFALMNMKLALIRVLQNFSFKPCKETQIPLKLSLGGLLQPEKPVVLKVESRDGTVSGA
Sequence of Paired box protein Pax-8 (Q06710 whole entry): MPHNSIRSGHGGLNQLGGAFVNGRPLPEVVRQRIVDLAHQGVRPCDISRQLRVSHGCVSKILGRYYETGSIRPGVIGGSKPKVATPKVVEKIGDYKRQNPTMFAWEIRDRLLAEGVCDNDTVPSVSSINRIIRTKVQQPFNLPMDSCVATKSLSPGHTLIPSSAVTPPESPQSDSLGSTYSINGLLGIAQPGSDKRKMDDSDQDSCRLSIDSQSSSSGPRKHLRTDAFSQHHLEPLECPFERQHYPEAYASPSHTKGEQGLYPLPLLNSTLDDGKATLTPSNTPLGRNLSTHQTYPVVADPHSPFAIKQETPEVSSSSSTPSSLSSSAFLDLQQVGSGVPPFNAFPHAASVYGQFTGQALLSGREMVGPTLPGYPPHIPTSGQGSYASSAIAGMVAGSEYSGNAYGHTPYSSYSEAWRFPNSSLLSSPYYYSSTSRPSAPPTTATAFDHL

On to `CN(C)c1ccc(-c2cncnc2Nc2ccccc2)cc1`, for which, at Cytochrome P450 2D6, the AC50 is 20 µM (inconclusive).
Regarding `N#Cc1cn(-c2ccccc2)nc1C(=O)c1ccccc1`, the EC50 (in [1]; in assay [2]; in the assay with H4) was > 120 µM (not active) throughout.
Take `COc1ccc(CN2CCC(CO)(CCOc3ccccc3)CC2)cc1C`: in assay [3], the IC50 is > 47.1 µM (inactive). Also, in [4], the EC50 was > 53 µM (inactive).
Turning to `COc1cccc(NS(=O)(=O)c2ccc3ncc(C(=O)NCCN4CCOCC4)c(O)c3c2)c1`, the AC50 on Cytochrome P450 1A2 is 12.6 µM (inconclusive); at Cytochrome P450 2D6 it was 28.2 µM (inconclusive).
For the compound `CCN(CC)C(=O)CSc1ncnc2c1nnn2-c1ccc(OC)cc1`, the IC50 in assay [3] was > 47.1 µM (inactive). For the same compound, the EC50 in [4] was > 53 µM (inactive).
On the same counts, the results for `CCOC(=O)C1=NN(c2ccccc2)C2=NC(C)=C(C(=O)OC)C(c3cccs3)N12` (configuration not stated) are > 47.1 µM (inactive) and > 53 µM (inactive).
For `COc1cc2c(cc1O)C[C@@H]1c3c(cc(O)c(OC)c3-2)CCN1C`, the AC50 on Cytochrome P450 2D6 is 3.16 µM (inconclusive).
Take `CCOC(=O)O[C@]1(C(=O)COC(=O)CC)CC[C@@H]2[C@@H]3CCC4=CC(=O)C=C[C@@]4(C)[C@H]3[C@H](O)C[C@]21C`: the AC50 on Cytochrome P450 3A4, at Cytochrome P450 2C9 and on Cytochrome P450 2D6 was 12.6 µM (inconclusive) throughout.
For the compound `CC(=O)N(C)c1ccc(NC(S)=Nc2cccc3ccccc23)cc1`, the EC50 in assay [1] is 29.5 µM (active); in assay [2], 15.8 µM (active); in the assay on H4, 30.7 µM (active).
For the compound `Cc1ccccc1Nc1nc(N)nc(COC(=O)c2cccc(S(=O)(=O)N(C)c3ccccc3)c2)n1`, the IC50 in assay [3] is > 47.1 µM (inactive). The EC50 in assay [4] was > 53 µM (inactive).
In the case of `Cc1nc(-c2ccc(Cl)cc2)sc1C1(C)CC(c2ccccc2)=NO1` (configuration not stated), the EC50 was 9.8 µM (active) in [1], 7.51 µM (active) in [2] and 31.3 µM (active) with H4.
Take `O=C(c1cc2nc(-c3ccc(F)cc3)cc(C(F)(F)F)n2n1)N1CCOCC1`: the IC50 in assay [3] is > 47.1 µM (inactive). The EC50 in [4] was > 53 µM (inactive).
Take `COc1ccc2nc(O)c(CN(CCc3ccccc3)C(C)=O)cc2c1`: the AC50 on Cytochrome P450 1A2, at Cytochrome P450 2C9 and on Cytochrome P450 2D6 was 14.1 µM (inconclusive) throughout.
Turning to `O=C1NCC2(CCN(CCc3ccccc3)CC2)O1` [FENSPIRIDE], on Cytochrome P450 2D6, the half-maximal activity concentration (AC50) was 12.6 µM (inconclusive) and 39.8 µM (inconclusive).
Regarding `O=C(C[C@H]1C[C@@H]2c3cc(NS(=O)(=O)c4ccccc4)ccc3O[C@@H]2[C@H](CO)O1)N1CCOCC1`, the IC50 in assay [3] is > 47.1 µM (inactive). Further, in [4], the EC50 is > 53 µM (inactive).
With `O=S(=O)(c1cccc2nsnc12)N1CCc2ccccc2C1`, in [3], the IC50 was > 47.1 µM (inactive). Besides, in assay [4], the EC50 is > 53 µM (inactive).
As for `N#Cc1nc(-c2cccc3ccccc23)oc1NCCN1CCCCC1`, the EC50 in [1] was 12 µM (active); in assay [2], 12.4 µM (active); in the assay on H4, > 120 µM (not active). The IC50 in assay [5] is > 20 µM (inactive).
As for `COc1ccc(C(=O)C(OC(=O)c2ccccc2)c2ccccc2)cc1` (configuration not stated), the results for the EC50 (in assay [1]; in assay [2]; in the assay on H4) were 30.5 µM (active), 10.7 µM (active) and 6.4 µM (active), respectively.
As for `CN(NC(=O)Nc1ccccc1)c1cnn(C)c(=O)c1Cl`, in assay [3], the IC50 is > 47.1 µM (inactive). Besides, the EC50 in assay [4] was > 53 µM (inactive).
Regarding `O=[N+]([O-])c1ccc(S(=O)(=O)Cc2ccccc2)c([N+](=O)[O-])c1`, the AC50 on Cytochrome P450 1A2 is 5.01 µM (inconclusive); on Cytochrome P450 2D6, 2.51 µM (inconclusive).
As to `CCc1cc2cccc(C)c2nc1SCC(=O)c1ccc(NC(C)=O)cc1`, the AC50 in assay [6] is 2.94 µM (active).
With `COc1cccc(CN2CC(C(=O)NCc3ccc(Cl)s3)CCC2=O)c1` (configuration not stated), the IC50 in assay [3] was > 47.1 µM (inactive). In assay [4], the EC50 was > 53 µM (inactive).
For `O=C(CCNS(=O)(=O)c1ccc2c(c1)CCC(=O)N2)NCc1ccc2c(c1)OCO2`, the half-maximal activity concentration (AC50) is 39.8 µM (inconclusive) on Cytochrome P450 2C9 and 22.4 µM (inconclusive) on Cytochrome P450 2D6.
Consider `COc1ccc(-n2c(=O)cnc3cnc(Oc4cccc(Cl)c4)nc32)cc1`, for which the AC50 on Cytochrome P450 2C19 is 15.8 µM (inconclusive); at Cytochrome P450 2D6 it was 39.8 µM (inconclusive).
For `FC(F)(F)c1ccccc1-c1cncnc1Nc1ccccc1`, the results for the AC50 at Cytochrome P450 1A2 and on Cytochrome P450 2D6 were 25.1 µM (inconclusive) and 39.8 µM (inconclusive), respectively.
Consider `Cc1ccc(-c2cc3nc(-c4ccccc4)cc(N)n3n2)cc1`, for which the values for the EC50 (in [1]; in assay [2]; with H4) were 0.812 µM (active), 0.163 µM (active) and > 120 µM (not active), respectively.
Consider `Brc1ccccc1OCCCCn1cnc2ccccc21`, for which the EC50 in [1] was 16.9 µM (active); in assay [2], > 120 µM (not active); in the assay with H4 it was 13 µM (inconclusive).
Take `Cc1ccc(Nc2ncnc3sc(C)c(C)c23)cc1`: the EC50 is 19.5 µM (active) in assay [1], 18.1 µM (active) in [2] and 26.3 µM (active) with H4.
With `O=C1[C@@H]2Cc3c([nH]c4ccccc34)C(c3cccc(Br)c3)N2C(=O)CN1C1CCN(Cc2ccccc2)CC1` (some centres not stated), the figures for the half-maximal activity concentration (AC50) (in assay [6]; on Paired box protein Pax-8) were 6.9 µM (active) and 12.1 µM (active), respectively. In addition, the figures for the EC50 in assay [7] and in assay [8] were 9.95 µM (active) and 1.32 µM (active), respectively.
In the case of `COc1ccc(CNc2ncnc3ccc(-c4ccc(C(=O)N(C)C)cc4)cc23)c(OC)c1`, the AC50 on Cytochrome P450 1A2 is 39.8 µM (inconclusive); on Cytochrome P450 2D6 it was 20 µM (inconclusive).
As to `CCCCCCC(C)(C)c1ccc([C@@H]2C[C@H](O)CC[C@H]2CCCO)c(O)c1` [CP-55940], the concentration at half-maximal activity (AC50) in [6] was 3.58 µM (active).
Consider `CCN(CC)Cc1c(C)nc2ccc(NC(C)=O)cc2c1O`, for which the IC50 in assay [3] is > 47.1 µM (inactive). The EC50 in [4] is > 53 µM (inactive).
For the compound `COc1ccc(CCn2c(-c3ccccc3)nc3c(c(=O)c4ccccc4n3C)c2=O)cc1`, the figures for the EC50 (in assay [1]; in assay [2]; in the assay on H4) were 24.2 µM (inconclusive), > 120 µM (not active) and > 120 µM (not active), respectively.
As to `CC(=O)c1cc(C#N)c(Oc2ccc(Cl)cc2Cl)nc1C`, the IC50 in assay [3] was > 47.1 µM (inactive). In addition, the EC50 in assay [4] is > 53 µM (inactive).

What is called AC50 is the concentration giving half of the maximal activity seen.
